Results published in US9145415B2, “Nitrogen-containing heterocyclic compound or salt thereof” (FUJIFILM Corporation, priority 2012, dated 2015).
Like-named read-outs stand apart in the source and are kept apart here.

What was measured:
Molm-13 cells = assay: Leukemia cell proliferation inhibition test (ATPlite), Molm-13; assay type: cell-based; conditions: Homo sapiens, read-out: MOLM13 cell proliferation inhibition effect
How it was run: (§1)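 72 h proliferation, 37° C/5% CO2; 10,000 cells/well, RPMI/10% FBS; ATPlite luminescence (RLU); 0.1% DMSO taken as 0% inhibition; GI50 via sigmoid fit, n=2.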

MV4-11 cells = assay: Leukemia cell proliferation inhibition test (ATPlite), MV4-11; assay type: cell-based; conditions: Homo sapiens, read-out: MV4-11 cell proliferation inhibition effect
How it was run: as §1

[1] = target: T1, human FLT3 protein (FLT3 (WT)) (Homo sapiens, UniProt P36888); assay: FLT3 inhibition test (FLT3 enzyme inhibition, time-resolved fluorescence of substrate peptide phosphorylation); assay type: biochemical; conditions: read-out: FLT3 (WT) enzyme inhibition activity
T1 construct: human FLT3 protein (intracellular region, 564 to 993 aa); GST; purchased Carna Biosciences; host or cells: baculovirus expression system
T1 sequence (P36888 564-993): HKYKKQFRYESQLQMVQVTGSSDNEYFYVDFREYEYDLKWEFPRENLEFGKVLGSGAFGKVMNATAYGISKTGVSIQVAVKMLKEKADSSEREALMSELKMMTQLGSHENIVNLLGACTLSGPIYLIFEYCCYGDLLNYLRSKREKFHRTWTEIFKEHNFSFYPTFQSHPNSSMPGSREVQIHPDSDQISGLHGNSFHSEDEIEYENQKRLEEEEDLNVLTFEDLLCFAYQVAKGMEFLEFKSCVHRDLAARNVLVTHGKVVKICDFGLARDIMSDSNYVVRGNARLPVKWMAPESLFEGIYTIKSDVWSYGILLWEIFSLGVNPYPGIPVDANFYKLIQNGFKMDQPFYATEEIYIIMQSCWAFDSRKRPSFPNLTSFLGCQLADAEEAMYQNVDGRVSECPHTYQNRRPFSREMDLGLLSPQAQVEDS
How it was run: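 Wild-type human FLT3 (1.2 μg) pre-incubated with compound 15 min at 25° C in 100 mM HEPES pH 7.5, 10 mM MgCl2, 25 mM NaCl, 1 mM DTT. Reaction started with substrate peptide and ATP (final 50 μM), run 30 min at 25° C; phosphorylation read by time-resolved fluorescence.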

[2] = MOLM-13, 72 h, Molm-13, 72 hours culture, ATPlite, GI50 per method
[3] = MV4-11, 72 h, MV4-11, 72 hours culture, ATPlite, GI50 per method
[4] = GST-fused human FLT3 (564 to 993 aa), ATP 50 μM

Row | SMILES | IC50 (Molm-13 cells; [2]) [nM] | IC50 (MV4-11 cells; [3]) [nM] | IC50 [1, 4] [nM] | IC50 (Molm-13 cells; MOLM-13, MOLM13 cell) [nM] | IC50 (MV4-11 cells; MV4-11, MV4-11 cell) [nM] | IC50 ([1]; FLT3 (WT)) [nM]
1 | C[C@@H](C(=O)NCCCC#Cc1cnc(Nc2cccc(F)c2)nc1NC1=CC2C=CC=NC2C=C1)N(C)C(=O)/C=C/CN(C)C (stereo partly drawn) [Compound 7-7] | < 10 | < 10 | < 10 |  |  | 
2 | CCCNc1nc(Nc2ccc(C(N)=O)cc2)ncc1C#CCCCNC(CCOC)(CCOC)CNC(=O)/C=C/CN(C)C [Compound 8-13] | 10 to 100 | 10 to 100 | < 10 |  |  | 
3 | CCCNc1nc(Nc2cncc(F)c2)ncc1C#CC(C)(C)CCNC(=O)[C@H](C)N(C)C(=O)/C=C/CN(C)C [Compound 9-21] | 10 to 100 | < 10 | < 10 |  |  | 
4 | CCCNc1nc(Nc2cccc(F)c2)ncc1C#CCCCNC(=O)[C@@H]1CCN1C(=O)/C=C/CN(C)C [Compound 7-51] | < 10 | < 10 | < 10 |  |  | 
5 | COc1ccc(Nc2ncc(C#CCCCNC(=O)[C@H](C)N(C)C(=O)/C=C/CN(C)C)c(NCCCF)n2)cc1F [Compound 7-56, (S,E)-4-(Dimethylamino)-N-(1-((5-(2-((3-fluoro-4-methoxyphenyl)amino)-4-((3-fluoropropyl)amino)pyrimidin-5-yl)-4-pentyn-1-yl)amino)-1-oxopropan-2-yl)-N-methyl-2-butenamide] | < 10 | < 10 | < 10 |  |  | 
6 | CCCNc1nc(NCCc2ccncc2)ncc1C(=O)Nc1cccc(NC(=O)CNC(=O)/C=C/CN2CC(C)NC(C)C2)c1 (stereo not drawn) [Compound 2-15] | 100 to 1000 | 100 to 1000 | < 10 |  |  | 
7 | CCCNc1nc(Nc2ccc(C(N)=O)cc2)ncc1C#Cc1cccc(NCCNC(=O)/C=C/CN(C)C)c1 [Compound 8-5] | 10 to 100 | 10 to 100 | < 10 |  |  | 
8 | CCCNc1nc(Nc2ccc(C#N)cc2)ncc1C#CCCCNC(C)(C)CN(C)C(=O)/C=C/CN(C)C [Compound 8-11] | < 10 | < 10 | < 10 |  |  | 
9 | CCCNc1nc(Nc2nnc(C)s2)ncc1C#CCCCNC(=O)[C@H](C)N(C)C(=O)/C=C/CN(C)C [Compound 9-40] | 10 to 100 | 10 to 100 | 10 to 100 |  |  | 
10 | CCCNc1nc(Nc2ccc3cnccc3c2)ncc1C(=O)NCCCNC(=O)[C@H](C)N(C)C(=O)/C=C/CN(C)C [Compound 6-8] | < 10 | < 10 | < 10 |  |  | 
11 | CCCNc1nc(Nc2ccc(C#N)cc2)ncc1C#CCCCNC(=O)[C@@H]1CCCN1C(=O)/C=C/CN(C)C [Compound 7-33, (S,E)-N-(5-(2-((4-Cyanophenyl)amino)-4-(propylamino)pyrimidin-5-yl)-4-pentyn-1-yl)-1-(4-(dimethylamino)-2-butenoyl)pyrrolidine-2-carboxamide] | < 10 | < 10 | < 10 |  |  | 
12 | C[C@@H](C(=O)Nc1cccc(C#Cc2cnc(Nc3ccc(C#N)cc3)nc2NC2CC2)n1)N(C)C(=O)/C=C/CN(C)C [Compound 8-18] | 10 to 100 | 10 to 100 | < 10 |  |  | 
13 | CCCNc1nc(Nc2cccc(F)c2)ncc1/C=C/c1cccc(NC(=O)[C@H](C)N(C)C(=O)/C=C/CN(C)C)c1 [Compound 7-27] | < 10 | 10 to 100 | < 10 |  |  | 
14 | CCCN(C)c1nc(Nc2ccc(C(=O)NC3CC3)cc2)ncc1C#CCCCNC(=O)[C@H](C)N(C)C(=O)/C=C/CN(C)C [Compound 9-8] | 10 to 100 | < 10 | < 10 |  |  | 
15 | C[C@@H](C(=O)NCCCC#Cc1cnc(Nc2cccc(F)n2)nc1NC1CC1)N(C)C(=O)/C=C/CN(C)C [Compound 9-23] | 100 to 1000 | 10 to 100 | 10 to 100 |  |  | 
16 | CNc1nc(Nc2ccc(F)cc2)ncc1C#CCCCNC(=O)[C@@H]1C[C@H](O)CN1C(=O)/C=C/CN(C)C [Compound 7-84] | < 10 | < 10 | < 10 |  |  | 
17 | CCCNc1nc(Nc2ccc(C(N)=O)cc2)ncc1C(=O)Nc1cccc(NC(=O)[C@H](C)N(C)C(=O)/C=C/C(C)N(C)C)c1 (stereo partly drawn) [Compound 4-14] | < 10 | < 10 | < 10 |  |  | 
18 | CCCNc1nc(Nc2ccc(C#N)cc2)ncc1C#CCCCNC(=O)[C@@H]1C[C@H](F)CN1C(=O)/C=C/CN(C)C [Compound 7-50] | < 10 | < 10 | < 10 |  |  | 
19 | CCCNc1nc(Nc2cc(C)no2)ncc1C#CCCCNC(=O)[C@@H]1CCCN1C(=O)/C=C/CN(C)C [Compound 7-79] | < 10 | < 10 | < 10 |  |  | 

More lines, now with the values ahead:

Row | IC50 (Molm-13 cells; [2]) [nM] | IC50 (MV4-11 cells; [3]) [nM] | IC50 [1, 4] [nM] | IC50 (Molm-13 cells; MOLM-13, MOLM13 cell) [nM] | IC50 (MV4-11 cells; MV4-11, MV4-11 cell) [nM] | IC50 ([1]; FLT3 (WT)) [nM] | SMILES
20 | 100 to 1000 | 100 to 1000 | 10 to 100 |  |  |  | CCCNc1nc(NCC)ncc1C#CCCCNC(=O)[C@H](C)N(C)C(=O)/C=C/CN(C)C [Compound 11-3]
21 | < 10 | < 10 | < 10 |  |  |  | CNc1nc(Nc2ccc3[nH]ncc3c2)ncc1C#CCCCNC(=O)[C@@H]1CCCN1C(=O)/C=C/CN(C)C [Compound 10-66, (S,E)-N-(5-(2-((1H-Indazol-5-yl)amino)-4-(methylamino)pyrimidin-5-yl)-4-pentyn-1-yl)-1-(4-(dimethylamino)-2-butenoyl)pyrrolidine-2-carboxamide]
22 | < 10 | < 10 | < 10 |  |  |  | CNc1nc(Nc2ccc3cnn(C)c3c2)ncc1C#CCCCNC(=O)[C@H](C)N(C)C(=O)/C=C/CN(C)C [Compound 10-56]
23 | < 10 | < 10 | < 10 |  |  |  | C[C@@H](C(=O)NCCCC#Cc1cnc(Nc2ccc(C#N)cc2)nc1NC1CCC1)N(C)C(=O)/C=C/CN(C)C [Compound 10-47]
24 | < 10 | < 10 | < 10 |  |  |  | C[C@@H](C(=O)NCCCC#Cc1cnc(Nc2cccc(F)c2)nc1NCCCN(C)C)N(C)C(=O)/C=C/CN(C)C [Compound 10-4]
25 | < 10 | < 10 | < 10 |  |  |  | COc1ccc(Nc2nc(Nc3ccc(F)cc3)ncc2C#CCCCNC(=O)CN(C)C(=O)/C=C/CN(C)C)cn1 [Compound 10-20]
26 |  |  |  | 10 to 100 | 10 to 100 | 10 to 100 | COc1ccc(Nc2nc(NC3CC3)ncc2C#CCCCNC(=O)[C@H](C)N(C)C(=O)/C=C/CN(C)C)cn1 [Compound 22-24]
27 | 10 to 100 | < 10 | < 10 |  |  |  | CN(C)C/C=C/C(=O)N(C)CC(=O)NCCCC#Cc1cnc(Nc2ccc(F)cc2)nc1N1CCOCC1 [Compound 10-17]
28 | < 10 | < 10 | < 10 |  |  |  | CCNc1nc(Nc2ccc3cn[nH]c3c2)ncc1C#CCCCNC(=O)[C@@H]1CCCN1C(=O)/C=C/CN(C)C [Compound 10-70]
29 |  |  |  | 100 to 1000 | 10 to 100 | 10 to 100 | CCCNc1nc(Nc2cccc3[nH]ncc23)ncc1C#CCCCNC(=O)[C@H](C)N(C)C(=O)/C=C/CN(C)C [Compound 21-54]
30 |  |  |  | < 10 | < 10 | < 10 | CCCNc1nc(Nc2cnc3c(cnn3CCOC)c2)ncc1C#CCCCNC(=O)[C@H](C)N(C)C(=O)/C=C/CN(C)C [Compound 22-40]
31 |  |  |  | 100 to 1000 | 100 to 1000 | 10 to 100 | CCCNc1nc(Nc2cccc3cn[nH]c23)ncc1C#CCCCNC(=O)[C@H](C)N(C)C(=O)/C=C/CN(C)C [Compound 21-56]
32 | < 10 | < 10 | < 10 |  |  |  | CNc1nc(Nc2ccc3[nH]ncc3c2)ncc1C#CCCCNC(=O)[C@H](C)N(C)C(=O)/C=C/CN(C)C [Compound 10-60]
33 | < 10 | < 10 | 10 to 100 |  |  |  | C[C@@H](C(=O)NCCCC#Cc1cnc(Nc2ccc(C#N)cc2)nc1-n1nccn1)N(C)C(=O)/C=C/CN(C)C [Compound 20-3]
34 |  |  |  | < 10 | < 10 | < 10 | CCCNc1nc(Nc2ccc3c(c2)c(OC)nn3CCOC)ncc1C#CCCCNC(=O)[C@H](C)N(C)C(=O)/C=C/CN(C)C [Compound 22-14]
35 | 10 to 100 | 10 to 100 | < 10 |  |  |  | C[C@@H](C(=O)NCCCC#Cc1cnc(Nc2ccc(C#N)cc2)nc1-n1cncn1)N(C)C(=O)/C=C/CN(C)C [Compound 20-4]
36 |  |  |  | < 10 | < 10 | < 10 | CCCNc1nc(Nc2ccc3c(c2)c(N(C)C)nn3C)ncc1C#CCCCNC(=O)[C@H](C)N(C)C(=O)/C=C/CN(C)C [Compound 22-12]
37 |  |  |  | < 10 | < 10 | < 10 | CC(C)Nc1nc(Nc2ccc(C#N)cc2)ncc1C#C[C@@H]1CCC[C@H](NC(=O)[C@H](C)N(C)C(=O)/C=C/CN(C)C)C1 [Compound 21-31]
